The values that follow come from patent publication US6423714B1, “Cyclohexene derivatives useful as antagonists of the motilin receptor” (Ortho McNeil-Pharmaceutical, Inc.., priority 2000, dated 2002).

In this assay the target is T1, motilin receptors located on the colon of mature rabbits (Oryctolagus cuniculus, UniProt G1T803).
T1 construct: The muscle tissues were homogenized in 10 volumes of buffer; from tissue; host or cells: rabbit colon smooth muscle, crude membrane homogenate
The assay can be described thus: Competition with radiolabeled (I125) porcine motilin for motilin receptors in rabbit colon membranes. The conditions noted are these: @ 50 nM; I125 motilin (porcine) 25-40 pM; rabbit colon smooth muscle membranes; 30 min at 30° C. The class given is binding. The method, then: The compounds of the invention were tested for their ability to compete with radiolabeled motilin (porcine) for the motilin receptors located on the colon of mature rabbits. The colon from mature New Zealand rabbits was removed, dissected free from the mucosa and serosa layers, and diced into small pieces. The muscle tissues were homogenized in 10 volumes of buffer (50 mM Tris-Cl, 10 mM MgCl2, 0.1 mg/mL bactracin, and 0.25 mM Peflabloc, pH 7.5) in a Polytron (29,000 rpm, 4×15 seconds). The homogenate was centrifuged at 1000×g for 15 min. and the supernatant discarded. The pellet was washed twice before being suspended in homogenizing buffer. This crude homogenate was then passed first through a 19 gauge needle then a 23 gauge needle to further suspend the material and stored at −80° C. […] The pellet was counted in the gamma counter to determine the percentage of […] motilin and thereby the percent inhibition of the test compound.
% inhibition was determined for some compounds by standard techniques: […]

The term % inhibition denotes how much of the control response was suppressed.

T1 sequence (G1T803 1-400): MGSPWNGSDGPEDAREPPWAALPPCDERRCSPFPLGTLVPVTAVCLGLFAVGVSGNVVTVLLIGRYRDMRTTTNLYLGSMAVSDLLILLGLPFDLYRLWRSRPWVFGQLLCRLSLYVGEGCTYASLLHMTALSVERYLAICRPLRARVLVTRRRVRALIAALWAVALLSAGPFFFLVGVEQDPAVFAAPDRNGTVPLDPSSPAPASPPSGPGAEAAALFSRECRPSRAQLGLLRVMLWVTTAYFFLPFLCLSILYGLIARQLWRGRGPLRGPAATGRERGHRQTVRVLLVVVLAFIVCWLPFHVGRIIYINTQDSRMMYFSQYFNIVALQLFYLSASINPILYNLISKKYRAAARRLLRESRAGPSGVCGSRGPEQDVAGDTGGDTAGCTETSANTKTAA

Take “3-Benzyl-3-trichloroacetamido-1-N[(3-(2-morpholinoethoxy)phenyl)amino]methylcyclohexene [Example 7]”: the “% inhibition” value is 59%.

In the case of `O=C(Nc1ccccc1)N(CC1=CC(Cc2ccccc2)(NC(=O)C(Cl)(Cl)Cl)CCC1)c1cccc(OCCN2CCOCC2)c1` (centres unmarked) [Example 6, 3-Benzyl-3-trichloroacetamido-1-(N-phenylaminocarbonyl)-N-[(3-(2-morpholinoethoxy)phenyl)amino]methylcyclohexene], the “% inhibition” value is recorded as 62%.
